± gives the expanded uncertainty stated by the source.
Details: Crystal; DTA

Work on `O` [water] yielded a Normal melting temperature of 0.00 ± 0.5 °C.

Molecule `CCCCCC` [hexane] has a Normal melting temperature of -95.76 ± 0.5 °C.

Molecule `[Hg]` [mercury] has a Normal melting temperature of -38.86 ± 0.5 °C.

Source: the NIST ThermoML archive (doi:10.1016/j.jct.2016.12.030)
